Measured values reported in ChEMBL document CHEMBL3217635, “Pharmacological properties of indolone-N-oxides controlled by a bioreductive transformation in red blood cells?” (Medchemcomm, 2011).
Values belong to the molecule of their own block, whether it stands above or below them.

Legend:
[1] = Metabolic stability in human RBC assessed as retention time at 7.8 mg/ml by LC-MS analysis; format: ADME, cell-based; conditions: erythrocyte
[2] = Metabolic stability in human RBC assessed as retention time of corresponding dihydroanalogue at 7.8 mg/ml by LC-MS analysis; format: ADME, cell-based; conditions: erythrocyte
[3] = Selectivity index, ratio of CC50 for human MCF7 cells to IC50 for Plasmodium falciparum FcB1; format: functional
[4] = Drug metabolism in human beta-thalassemic RBC assessed as 1-HH formation after 3 hrs; format: ADME, cell-based; conditions: erythrocyte
[5] = Drug metabolism assessed as 1-HH metabolite formation in presence of haemoglobin; format: physicochemical
[6] = Drug metabolism in human heat-denaturated RBC; format: ADME, cell-based; conditions: erythrocyte
[7] = Drug metabolism in human RBC assessed as 1-HH formation at 5 mM at 4 degC after 6 hrs by HPLC-FL analysis; format: ADME, cell-based; conditions: erythrocyte, 5000 µM
[8] = Drug metabolism assessed as 1-HH metabolite formation in presence of haematin; format: physicochemical
[9] = Drug metabolism assessed as 1-HH metabolite formation in presence of ferrous ion; format: physicochemical
[10] = Metabolic stability in human RBC assessed as increase in extracellular dihydroanalogue metabolite level at 1 mg/ml; format: ADME, cell-based; conditions: erythrocyte, TDE = time-dependent effect
[11] = Drug metabolism in cytoplasm of human RBC assessed as 1-HH metabolite formation after 3 hrs; format: ADME; conditions: erythrocytes
[12] = Drug metabolism assessed as 1-HH metabolite formation in presence of haemin; format: physicochemical
[13] = Cellular uptake in human RBC assessed as intracellular level at 1 mg/ml measured immediately; format: ADME, cell-based; conditions: erythrocyte
[14] = Cytotoxicity against human MCF7 cells; format: cell-based
[15] = Drug metabolism in human RBC assessed as 1-HH formation after 4 hrs by HPLC-FL analysis; format: ADME, cell-based; conditions: erythrocyte
[16] = Drug metabolism in CDNB-treated human RBC assessed as 1-HH formation after 4 hrs by HPLC-FL analysis; format: ADME, cell-based; conditions: erythrocyte
[17] = Drug metabolism in human RBC infected with late stage Plasmodium falciparum assessed as 1-HH formation after 3 hrs; format: ADME, cell-based; conditions: erythrocyte
[18] = Drug metabolism in human RBC assessed as 1-HH formation at 5 mM at 37 degC after 6 hrs by HPLC-FL analysis; format: ADME, cell-based; conditions: erythrocyte, 5000 µM
[19] = Drug metabolism in CD-1 mouse liver microsomes assessed as 1-HH metabolite formation after 10 mins by LC-FL analysis; format: ADME
[20] = Drug metabolism in healthy human RBC assessed as 1-HH formation after 3 hrs; format: ADME, cell-based; conditions: erythrocyte
[21] = Drug metabolism assessed as 1-HH metabolite formation after 3 hrs in presence of human haemoglobin; format: physicochemical
[22] = Drug metabolism in human phenylhydrazine-treated RBC assessed as 1-HH formation after 3 hrs; format: ADME, cell-based; conditions: erythrocyte
[23] = Half life in CD-1 mouse liver microsomes by LC-FL analysis; format: ADME
[24] = Drug metabolism assessed as 1-HH metabolite formation in presence of human haemoglobin; format: ADME
[25] = Drug metabolism assessed as 1-HH metabolite formation after 3 hrs in presence of ghost fraction; format: physicochemical
[26] = Drug metabolism in human NEM-treated RBC assessed as 1-HH formation after 4 hrs by HPLC-FL analysis; format: ADME, cell-based; conditions: erythrocyte
[27] = Half life in mouse liver microsomes; format: ADME
[28] = system: Plasmodium falciparum; assay: Antiplasmodial activity against Plasmodium falciparum FcB1; format: functional, organism-based

Retention_time [1]: 22.6 min
Retention_time [2]: 10.4 min
Structure (SMILES): COc1ccc2c(c1)C(=O)C(c1ccc(Cl)c(C)c1)=[N+]2[O-]

Drug metabolism [4]: Active
Stability [5]: Stable
Stability [6]: Stable
Drug metabolism [7]: Active
Stability [8]: Stable
Stability [9]: Stable
Drug metabolism [10]: tde
Drug metabolism [11]: Active
Retention_time [1]: 18.2 min
Stability [12]: Stable
Drug uptake [13]: Active
Drug metabolism [15]: Active
Drug metabolism [16]: Not Active
Drug metabolism [17]: Active
Drug metabolism [18]: Active
Stability [19]: Stable
Drug metabolism [20]: Active
Stability [21]: Stable
Drug metabolism [22]: Active
half-life [23]: < 1 min
Stability [24]: Stable
Stability [25]: Stable
Drug metabolism [26]: Not Active
Retention_time [2]: 9.6 min
Structure (SMILES): O=C1C(c2ccc(Cl)cc2)=[N+]([O-])c2cc3c(cc21)OCO3
Ratio CC50/IC50 [3]: 264
CC50 [14]: 23 µM

Structure (SMILES): COc1ccc2c(c1)C(=O)C(c1ccc(N(C)C)cc1)=[N+]2[O-]
Retention_time [1]: 14 min
half-life [27]: 6 min
IC50 [28]: 0.003 µM
Retention_time [2]: 8.2 min

Retention_time [1]: 23.5 min
Retention_time [2]: 11.3 min
Structure (SMILES): COc1ccc2c(c1)C(=O)C(c1ccc(Oc3ccccc3)cc1)=[N+]2[O-]

Retention_time [1]: 17.4 min
Retention_time [2]: 9.9 min
Structure (SMILES): COc1ccc2cc(C3=[N+]([O-])c4ccccc4C3=O)ccc2c1

Structure (SMILES): CCN(CC)CCCC(C)Nc1ccnc2cc(Cl)ccc12 (stereo not drawn) [CHLOROQUINE]
CC50 [14]: 19 µM

IC50 [28]: 1.03 µM
half-life [23]: 10 min
Structure (SMILES): O=C1c2cc3c(cc2NC1(O)c1ccc(Cl)cc1)OCO3 (stereo not drawn)
Ratio CC50/IC50 [3]: 66
CC50 [14]: 68 µM

Retention_time [1]: 20.9 min
Retention_time [2]: 11.2 min
Structure (SMILES): O=C1C(c2ccc(Cl)c(Cl)c2)=[N+]([O-])c2ccccc21
